Data on 16 compounds can be found in patent publication US20220064138A1, “MACROLIDE BREFELDIN A ESTER DERIVATIVES AND USE THEREOF” (OCEAN UNIVERSITY OF CHINA, priority 2019, published 2022).

SMILES strings stand for the structures.

What all share (assay): Cell proliferation assay (CCK-8)
Holding throughout (format): cell-based

Test [1] relates to Human cervical cancer Hela cells. To be noted: 72 h. The text has this: (§1) CCK-8 method: The CCK-8 method is a highly sensitive, non-radioactive colorimetric assay for the determination of the number of viable cells in cell proliferation or cytotoxicity assays. The orange formazan dye produced by the bioreduction of CCK-8 by intracellular dehydrogenase is soluble in the cell culture medium, and the amount of formazan dye produced is proportional to the number of living cells. The kit used in this method is the tetrazolium salt-WST-8 (2-(2-methoxy-4-nitrophenyl)-3-(4-nitrophenyl)-5-(2,4-disulfophenyl)-2H-tetrazolium monosodium salt) developed by Dojindo Chemical Research Institute (Dojindo), which is capable of being reduced to a water-soluble formazan dye in the presence of the electronic carrier 1-Methoxy PMS.
(§2) Human cervical cancer Hela cells, pancreatic cancer PANC-1 cells, esophageal cancer Eca-109 cells, human leukemia K562 cells, human lung cancer A549 cells, human liver cancer HepG2 cells, human gastric cancer MKN-45 cells, human breast cancer MCF7 cells were cultured in DMEM medium containing 10% FBS (fetal bovine serum), 100 U/mL penicillin and 100 μg/ml streptomycin. Hepatocellular carcinoma cells Bel-7402 were cultured in RPMI-1640 medium containing 10% FBS (fetal bovine serum), 100 U/ml penicillin and 100 μg/ml streptomycin. All cells were placed in a cell culture incubator at 37° C. with 5% CO2. Cells fluid was changed every 3-5 days, and after 80% cell fusion, trypsin digestion and passaging were performed to keep the cells in good logarithmic growth phase.
(§3) All the samples to be tested were dissolved in DMSO.
(§4) Cells in logarithmic growth phase were inoculated in 96-well plates with 5000 cells/well respectively, and after 24 h of incubation, samples were added (final concentrations as shown in the table), and biplicate wells were set up for each sample. The amount of solvent of DMSO was not higher than 2‰. After 72 h, 10 μL of CCK-8 solution was added to each well and incubated for 1.5˜3 h at 37° C. The OD value at 450 nm was measured on an plate reader.
(§5) Inhibition rate (%)=(1−[(OD450 dosed well−OD450 blank well)/(OD450 control well−OD450 blank well)])×100%
(§6) The fitted IC50 values were calculated using the log (inhibitor) vs. response-Variable slop analysis method in GraphPad Prism software.

Test [2] has as its system esophageal cancer Eca-109 cells. Particulars: Homo sapiens, Eca-109, 72 h.
Description: as §1, §2, §3, §4, §5, §6

Test [3] deals with human breast cancer MCF7 cells. To be noted: MCF7, 72 h.
Description: as §1, §2, §3, §4, §5, §6

The subject of test [4] is human gastric cancer MKN-45 cells. Particulars: MKN-45, 72 h.
Description: as §1, §2, §3, §4, §5, §6

For test [5], the system named is human leukemia K562 cells. To be noted: K562, 72 h.
Description: as §1, §2, §3, §4, §5, §6

In test [6] the test system is human liver cancer HepG2 cells. To be noted: HepG2, 72 h.
Description: as §1, §2, §3, §4, §5, §6

For test [7], the system named is human lung cancer A549 cells. Particulars: A549, 72 h.
Description: as §1, §2, §3, §4, §5, §6

The subject of test [8] is pancreatic cancer PANC-1 cells. To be noted: Homo sapiens, PANC-1, 72 h.
Description: as §1, §2, §3, §4, §5, §6

Consider `C[C@H]1CCC/C=C/[C@@H]2C[C@H](OC(=O)/C=C/c3ccncc3)C[C@H]2[C@H](OC(=O)/C=C/c2ccncc2)/C=C/C(=O)O1` [Compound 14c], for which the IC50 (usually the concentration needed to halve the response being measured) in test [1] fell in the range of 1000 to 10000 nM; in test [2], 1000 to 10000 nM; in test [3], 1000 to 10000 nM; in test [4], 100 to 1000 nM; in test [5] it was 100 to 1000 nM; in test [6], 100 to 1000 nM. Also, the IC50 fell in the range of 100 to 1000 nM in test [7] and 1000 to 10000 nM in test [8].
For the compound `C[C@H]1CCC/C=C/[C@@H]2C[C@H](OC(=O)/C=C/c3ccccn3)C[C@H]2[C@H](O)/C=C/C(=O)O1` [Compound 15a, 7-O-(3-(pyridine-2-yl)acrylic acid)acyl BFA], the IC50 in test [1] was 100 to 1000 nM; in test [2] it was 1000 to 10000 nM; in test [3], 100 to 1000 nM; in test [4], 100 to 1000 nM; in test [5] it was 100 to 1000 nM; in test [6], under 100 nM. Further, the half-maximal inhibitory concentration (IC50) in test [7] was 100 to 1000 nM; in test [8], under 100 nM.
Regarding `C[C@H]1CCC/C=C/[C@@H]2C[C@H](O)C[C@H]2[C@H](OC(=O)/C=C/c2cnc3ccccc3c2)/C=C/C(=O)O1` [Compound 17b], the IC50 in test [1] was 100 to 1000 nM; in test [2], 100 to 1000 nM; in test [3] it was 100 to 1000 nM; in test [4] it was 100 to 1000 nM; in test [5], 100 to 1000 nM; in test [6] it was under 100 nM. The IC50 was 100 to 1000 nM in test [7] and under 100 nM in test [8].
Take `C[C@H]1CCC/C=C/[C@@H]2C[C@H](O)C[C@H]2[C@H](OC(=O)/C=C/c2ccncc2)/C=C/C(=O)O1` [Compound 14b]: the IC50 in test [1] was 100 to 1000 nM; in test [2], 1000 to 10000 nM; in test [3] it was 100 to 1000 nM; in test [4], 100 to 1000 nM; in test [5], 100 to 1000 nM; in test [6] it was under 100 nM. Further, the IC50 in test [7] is 100 to 1000 nM; in test [8] it was under 100 nM.
For `C[C@H]1CCC/C=C/[C@@H]2C[C@H](O)C[C@H]2[C@H](OC(=O)/C=C/c2ccccc2Br)/C=C/C(=O)O1` [Compound 4b, 4-O-(2-bromocinnamic acid)acyl BFA], the 50% inhibitory concentration (IC50) in test [1], in test [2], in test [3], in test [4], in test [5] and in test [6] was 100 to 1000 nM in each case. Also, the half-inhibitory concentration (IC50) in test [7] and in test [8] was 100 to 1000 nM throughout.
In the case of `C[C@H]1CCC/C=C/[C@@H]2C[C@H](OC(=O)/C=C/c3ccccc3F)C[C@H]2[C@H](OC(=O)/C=C/c2ccccc2F)/C=C/C(=O)O1` [Compound 2c, 4,7-O-bis(2-fluorocinnamic acid)acyl BFA], the IC50 in test [1] was in the range of 1000 to 10000 nM; in test [2] it was 1000 to 10000 nM; in test [3], 1000 to 10000 nM; in test [4], 100 to 1000 nM; in test [5], 100 to 1000 nM; in test [6], 1000 to 10000 nM. In addition, the IC50 in test [7] and in test [8] was 1000 to 10000 nM each time.
On to `C[C@H]1CCC/C=C/[C@@H]2C[C@H](O)C[C@H]2[C@H](OC(=O)/C=C/c2cccc(Cl)c2)/C=C/C(=O)O1` [Compound 5b, 4-O-(3-chlorocinnamic acid)acyl BFA], for which the IC50 in test [1], in test [2], in test [3], in test [4], in test [5] and in test [6] was 100 to 1000 nM throughout. In addition, the IC50 in test [7] and in test [8] was 100 to 1000 nM each time.
For the compound `Cc1ccc(/C=C/C(=O)O[C@@H]2C[C@H]3[C@H](O)/C=C/C(=O)O[C@@H](C)CCC/C=C/[C@@H]3C2)cc1` [Compound 7a, 7-O-(4-methylcinnamic acid)acyl BFA], the IC50 in test [1] is 1000 to 10000 nM; in test [2] it was 1000 to 10000 nM; in test [3] it was 1000 to 10000 nM; in test [4] it was 100 to 1000 nM; in test [5] it was 1000 to 10000 nM; in test [6] it was 1000 to 10000 nM. Also, the IC50 in test [7] and in test [8] was 100 to 1000 nM throughout.
On to `C[C@H]1CCC/C=C/[C@@H]2C[C@H](OC(=O)/C=C/c3cccc(Cl)c3)C[C@H]2[C@H](OC(=O)/C=C/c2cccc(Cl)c2)/C=C/C(=O)O1` [Compound 5c, 4,7-O-bis(3-chlorocinnamic acid)acyl BFA], for which the IC50 was 100 to 1000 nM in test [1]; 1000 to 10000 nM in test [2]; 1000 to 10000 nM in test [3]; 100 to 1000 nM in test [4]; 1000 to 10000 nM in test [5]; 1000 to 10000 nM in test [6]. Moreover, the values for the half-inhibitory concentration (IC50) in test [7] and in test [8] were 100 to 1000 nM and 1000 to 10000 nM, respectively.
On to `C[C@H]1CCC/C=C/[C@@H]2C[C@H](OC(=O)/C=C/c3ccc(C(F)(F)F)cc3)C[C@H]2[C@H](O)/C=C/C(=O)O1` [Compound 13a, 7-O-(4-trifluoromethylcinnamic acid)acyl BFA], for which the half-inhibitory concentration (IC50) in test [1], in test [2], in test [3], in test [4], in test [5] and in test [6] was 100 to 1000 nM each time. In addition, the IC50 in test [7] and in test [8] was 100 to 1000 nM in each case.
As for `COc1cc(/C=C/C(=O)O[C@@H]2C[C@H]3[C@H](O)/C=C/C(=O)O[C@@H](C)CCC/C=C/[C@@H]3C2)cc(OC)c1OC` [Compound 11a, 7-O-(3,4,5-trimethoxycinnamic acid)acyl BFA], the IC50 in test [1] was in the range of 1000 to 10000 nM; in test [2] it was 1000 to 10000 nM; in test [3] it was 100 to 1000 nM; in test [4], 100 to 1000 nM; in test [5], 100 to 1000 nM; in test [6] it was 100 to 1000 nM. The concentration for half-maximal inhibition (IC50) in test [7] and in test [8] was 100 to 1000 nM throughout.
With `C[C@H]1CCC/C=C/[C@@H]2C[C@H](O)C[C@H]2[C@H](OC(=O)/C=C/c2ccccc2F)/C=C/C(=O)O1` [Compound 2b, 4-O-(2-fluorocinnamic acid)acyl BFA], the IC50 in test [1] was 1000 to 10000 nM; in test [2], 1000 to 10000 nM; in test [3] it was 100 to 1000 nM; in test [4], 100 to 1000 nM; in test [5], 100 to 1000 nM; in test [6], 100 to 1000 nM. Besides, the IC50 in test [7] and in test [8] was 100 to 1000 nM each time.
Regarding `C[C@H]1CCC/C=C/[C@@H]2C[C@H](OC(=O)/C=C/c3ccccc3Br)C[C@H]2[C@H](O)/C=C/C(=O)O1` [Compound 4a, 7-O-(2-bromocinnamic acid)acyl BFA], the half-inhibitory concentration (IC50) in test [1], in test [2], in test [3], in test [4], in test [5] and in test [6] was 100 to 1000 nM throughout. Also, the 50% inhibitory concentration (IC50) in test [7] and in test [8] was 100 to 1000 nM in each case.
With `C[C@H]1CCC/C=C/[C@@H]2C[C@H](OC(=O)/C=C/c3cnc4ccccc4c3)C[C@H]2[C@H](O)/C=C/C(=O)O1` [Compound 17a, 7-O-(3-(quinoline-3-yl)acrylic acid)acyl BFA], the IC50 is 100 to 1000 nM in test [1]; 100 to 1000 nM in test [2]; 100 to 1000 nM in test [3]; 100 to 1000 nM in test [4]; 100 to 1000 nM in test [5]; under 100 nM in test [6]. Further, the figures for the IC50 in test [7] and in test [8] were 100 to 1000 nM and under 100 nM, respectively.
Consider `C[C@H]1CCC/C=C/[C@@H]2C[C@H](OC(=O)/C=C/c3ccccc3F)C[C@H]2[C@H](O)/C=C/C(=O)O1` [Compound 2a, 7-O-(2-fluorocinnamic acid)acyl BFA], for which the IC50 in test [1] was in the range of 1000 to 10000 nM; in test [2], 1000 to 10000 nM; in test [3] it was 100 to 1000 nM; in test [4] it was 100 to 1000 nM; in test [5], 100 to 1000 nM; in test [6] it was 100 to 1000 nM. For the same compound, the IC50 in test [7] and in test [8] was 100 to 1000 nM in each case.
As for `Cc1ccccc1/C=C/C(=O)O[C@@H]1/C=C/C(=O)O[C@@H](C)CCC/C=C/[C@@H]2C[C@H](O)C[C@H]21` [Compound 8b, 4-O-(2-methylcinnamic acid)acyl BFA], the IC50 in test [1] was in the range of 1000 to 10000 nM; in test [2], 100 to 1000 nM; in test [3], 100 to 1000 nM; in test [4], 100 to 1000 nM; in test [5] it was 1000 to 10000 nM; in test [6] it was 100 to 1000 nM. Also, the concentration for half-maximal inhibition (IC50) in test [7] and in test [8] was 100 to 1000 nM in each case.
